pKi: −log10 of the molar value.

For orientation: pKi means −log10 of the Ki, conventionally taken in molar units. High values mean a low Ki, low ones a high Ki.

The target of this test is Alpha-1B adrenergic receptor (Mesocricetus auratus) (UniProt P18841). Nature of the test: Binding affinity towards Alpha-1B adrenergic receptor hamster smooth muscle using [3H]prazosin as radioligand.
Sequence of Alpha-1B adrenergic receptor (Mesocricetus auratus) (P18841 whole entry, looked up): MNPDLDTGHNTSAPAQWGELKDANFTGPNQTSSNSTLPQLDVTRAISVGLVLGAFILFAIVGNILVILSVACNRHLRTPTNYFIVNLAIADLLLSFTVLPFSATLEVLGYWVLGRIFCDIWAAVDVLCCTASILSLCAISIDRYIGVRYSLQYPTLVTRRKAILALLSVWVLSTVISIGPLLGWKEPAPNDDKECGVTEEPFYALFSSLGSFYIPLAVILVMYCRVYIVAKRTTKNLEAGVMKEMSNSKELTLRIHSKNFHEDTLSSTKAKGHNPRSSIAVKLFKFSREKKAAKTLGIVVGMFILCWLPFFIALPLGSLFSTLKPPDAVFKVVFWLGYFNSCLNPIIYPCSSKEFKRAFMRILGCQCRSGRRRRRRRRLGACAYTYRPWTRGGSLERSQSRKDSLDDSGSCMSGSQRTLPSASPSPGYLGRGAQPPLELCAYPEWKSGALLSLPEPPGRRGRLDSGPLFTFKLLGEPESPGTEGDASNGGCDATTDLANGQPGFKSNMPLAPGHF

`COc1cccc(OC)c1OCCNCC1Oc2ccccc2OC1c1ccc(C)cc1` (configuration not stated) [[2-(2,6-Dimethoxy-phenoxy)-ethyl]-(3-p-tolyl-2,3-dihydro-benzo[1,4]dioxin-2-ylmethyl)-amine]: the pKi was 7.29.
Then `COc1cccc(OC)c1OCCNC[C@@H]1Oc2ccccc2O[C@H]1c1ccc(C)cc1` [[2-(2,6-Dimethoxy-phenoxy)-ethyl]-((2S,3S)-3-p-tolyl-2,3-dihydro-benzo[1,4]dioxin-2-ylmethyl)-amine], with 7.68.

Values taken from BindingDB's records for doi:10.1021/jm960069a (University of Camerino, 1996).
